Assay results from US5314999A, “Derivatives of basic polyene macrolides and their preparation” (Laboratoires Mayoly-Spindler, priority 1989, dated 1994).
Where a name gives a salt, the structure may show the parent alone. Read-outs that look alike come from different tables or passages of the source.

What was measured:
Type in all cases: cell-based
Candida albicans = assay: Growth inhibition in liquid medium (Sabouraud broth); details: Sabouraud broth, 28° C., 18 hours, read-out: IC 50 (growth-inhibiting concentration of 50%)
Description: (§1) A.1 : Study of the antibiotic efficiency of AmB derivatives in liquid medium against different yeasts
(§2) The antibiotic efficiency was tested by the growth inhibition method in liquid medium (Sabouraud broth) in the presence of different concentrations of the derivatives studied.
(§3) A yeast suspension was cultivated in a broth in such a manner that about 1×10^2 cell/ml were obtained.
(§4) The tubes containing the different concentrations of antifungal substance were inoculated with the same amount of yeast cells, and were then incubated at 28° C. for 18 hours with stirring. For each concentration of antifungal substance, two identical tubes were prepared.
(§5) The inhibition of fungal growth corresponding to the different concentrations was evaluated for each molecule by spectrophotometry at 620 nm and expressed in percent with respect to a reference solution without antifungal substance.

Cryptoccocus neoformans = assay: as above; details: Sabouraud broth, 28° C., 18 hours; read-out: IC 50 (growth-inhibiting concentration of 50%)
Description: as §1, §2, §3, §4, §5

Pytirosporum orbiculare = assay: as above; details: Sabouraud broth, 28° C., 18 hours; read-out: IC 50 (growth-inhibiting concentration of 50%)
Description: as §1, §2, §3, §4, §5

Saccharomyces cerevisiae = assay: as above; details: Sabouraud broth, 28° C., 18 hours, read-out: IC 50 (growth-inhibiting concentration of 50%)
Description: as §1, §2, §3, §4, §5

Aspergillus flavus = assay: Diffusion method in agar-agar medium (Sabouraud agar-agar); details: Sabouraud agar-agar, disc diameter 1 cm, 0.1 ml
Description: (§6) A.2 : Study of the antibiotic efficiency of amphotericine B derivatives in agar-agar medium against Aspergillus
(§7) The antibiotic activity was tested by the diffusion method in agar-agar medium (Sabouraud agar-agar).
(§8) The efficiency of each molecule was determined by the size of the growth-inhibiting zone around a WHATMAN 3M paper disc impregnated with the antibiotic substance of a given concentration.
(§9) A suspension of Aspergillus spores in a broth was prepared, 0.2 ml of this suspension was used to inoculate at its surface an agar-agar medium which was solidified in such a manner that a homogeneous growth layer was obtained. After spreading, the WHATMAN 3M paper discs (diameter: 1 cm) were placed on the surface of the agar-agar, and then impregnated with 0.1 ml of the antibiotic substance at different concentrations.

Aspergillus fumigatus = assay: as above; details: Sabouraud agar-agar, disc diameter 1 cm, 0.1 ml
Description: as §6, §7, §8, §9

red corpuscles [1] = assay: Toxicity on red corpuscles (lysis), mice; details: 37° C., 1 hour 30, 90 min, read-out: LD 50 (dose which leads to lysis in 50% of the erythrocytes)
Description: (§10) B.1: Study of the toxicity on red corpuscles
(§11) All the solutions of the AmB derivatives according to the invention were prepared immediately before use by diluting 4 mg of substance in 100 μl of 5% glucose solution, and then, after 15 minutes protected from light, 100 μl of sterile distilled water are added, and the mixture is made up to stock solutions of 4 mg/ml with a 5% glucose solution. For comparative study of the effects of AmB, 4 mg of FUNGIZONE are diluted with 1 ml of 5% glucose.
(§12) The cells are prepared by placing 1 ml of a peripheral blood sample into a tube together with Ficollhypaque to remove the lymphocytes, and then centrifuging the mixture at 2000 rpm for 20 minutes. The remaining red corpuscles are recovered, washed once with 0.9% NaCl and then twice with 150 Mm KCl, 0.5 Mm tris-HCl, pH 7.4.
(§13) A 1.25% suspension is then prepared with 150 mM KCl solution, 0.5 mM tris-HCl, pH 7.4, and 150 μl thereof are distributed in wells along with 50 μl of each of the dilutions of the derivatives, plus a control well (5% glucose solution).
(§14) The cells are then incubated at 37° C. in a steam cabinet for 1 hour 30.
(§15) To evaluate the cell lysis, haemoglobin is essayed by removing 100 μl of the supernatant in each well and diluting the sample with 1 ml of distilled water.
(§16) The haemoglobin concentration is calculated by measuring the optical density at 540 nm and taking into account the absorption of the derivatives of amphotericine B.
(§17) LD 50 is the dose which leads to lysis in 50% of the erythrocytes (a control of 100% lysis is obtained with distilled water, and reference lysis of 0% is obtained with the 5% glucose solution).

[2] = Toxicity on nucleated cells, mice T lymph gland cells; details: mouse, 1 hour 30, trypan blue, read-out: LD 50 (concentration leading to a mortality of 50%)
Description: (§18) B.2: Study of the toxicity on nucleated cells
(§19) The solutions of the amphotericine B derivatives are prepared similarly to those mentioned in paragraph B.1.
(§20) The cells are prepared by placing 20 ml of blood diluted to 1/2 with 0.9% NaCl into a tube together with 10 ml of Ficoll-hypaque, and the mixture is centrifuged at 2000 rpm for 30 minutes. The cell nuclei are recovered and washed twice with PBS buffer containing 5% of foetal calf serum.
(§21) The cells are prepared by suspending 1.14×10^6 cells/ml in RPMI 1640 containing 2.5% of foetal calf serum and by filling each well with 150 μl. 50 μl of each dilution of the derivatives are added and also one control (5% glucose solution).
(§22) The cells are then incubated in a steam cabinet at a CO2 concentration of 5% for 1 hour 30 at 37° C. or at ambient temperature.
(§23) To evaluate the toxicity of the derivatives, a cell count in the presence of trypan blue is made, and the LD 50 (concentration of the derivative leading to a mortality of 50%) is calculated with respect to the control (5% glucose solution) for each concentration of each derivative.

[3] = Toxicity on nucleated cells, mice B lymph gland cells; details: mouse, 1 hour 30, trypan blue, read-out: LD 50 (concentration leading to a mortality of 50%)
Description: as §18, §19, §20, §21, §22, §23

[4] = Toxicity on nucleated cells, mice thymocytes; details: mouse, thymocytes, 1 hour 30, trypan blue, read-out: LD 50 (concentration leading to a mortality of 50%)
X 63 (mice lymphoma B) = assay: Toxicity on nucleated cells, X 63 mice lymphoma B; details: 1 hour 30, trypan blue, 90 min, read-out: LD 50 (concentration leading to a mortality of 50%)
PBL = assay: Toxicity on nucleated cells, human PBL; details: 90 min
Description: as §18, §19, §20, §21, §22, §23

red corpuscles [5] = assay: Toxicity on red corpuscles (lysis), human; details: 37° C., 1 hour 30, 90 min, 90 min, read-out: LD 50 (dose which leads to lysis in 50% of the erythrocytes)
Description: as §10, §11, §12, §13, §14, §15, §16, §17

[6] = Toxicity on nucleated cells, human bone marrow; details: 1 hour 30, trypan blue, read-out: LD 50 (concentration leading to a mortality of 50%)
Description: as §18, §19, §20, §21, §22, §23

[7] = Toxicity on nucleated cells, human thymocytes; details: 1 hour 30, trypan blue, read-out: LD 50 (concentration leading to a mortality of 50%)
Description: as §18, §19, §20, §21, §22, §23

DAUDI (human lymphoma B) = assay: Toxicity on nucleated cells, DAUDI human lymphoma B; details: 1 hour 30, trypan blue, 90 min, read-out: LD 50 (concentration leading to a mortality of 50%)
thymocytes = assay: Toxicity on nucleated cells, mice thymocytes; details: 1 hour 30, trypan blue, 90 min, read-out: LD 50 (concentration leading to a mortality of 50%)
[8] = human PBL, 1 hour 30, trypan blue, read-out: LD 50 (concentration leading to a mortality of 50%)

SMILES | IC50 (Cryptoccocus neoformans) [µM] | concentration giving a growth inhibition of 1 cm around a disc in solid medium (Aspergillus flavus) | concentration giving a growth inhibition of 1 cm around a disc in solid medium (Aspergillus fumigatus) | HC50 (red corpuscles [1]; 90 min) [µM] | CC50 (X 63 (mice lymphoma B)) [µM] | CC50 (PBL; [8]) [µM] | HC50 (red corpuscles [5]) [µM] | CC50 (DAUDI (human lymphoma B)) [µM] | IC50 (Candida albicans) [µM] | IC50 (Saccharomyces cerevisiae) [µM] | CC50 (thymocytes) [µM] | also measured
C[C@@H]1[C@H](O)[C@@H](C)/C=C/C=C/C=C/C=C/C=C/C=C/C=C/[C@H](O[C@@H]2O[C@H](C)[C@@H](O)[C@H](NCC3(O)O[C@H](C(=O)O)[C@@H](O)[C@@H]3O)[C@@H]2O)C[C@@H]2O[C@](O)(C[C@@H](O)C[C@@H](O)[C@H](O)CC[C@@H](O)C[C@@H](O)CC(=O)O[C@H]1C)C[C@H](O)[C@H]2C(=O)O (stereo partly drawn) [AmB 17 F, 1-amino-1-deoxy-D-arabinoglucuronyl-AmB] | 0.15 | 2 × 10^-4 molarity | 2 × 10^-4 molarity | 30 | > 1000 | > 1000 | 200 | > 1000 | – | – | – | IC50 (Candida albicans; Candida albicans, 18 h): 0.13 µM; IC50 (Pytirosporum orbiculare): 0.09 µM; IC50 (Saccharomyces cerevisiae; Saccharomyces cerevisiae, 18 h): 1.4 µM; CC50 at 1.5 h [2]: 20 µM; CC50 at 1.5 h [3]: 150 µM; CC50 at 1.5 h [4]: 8 µM; CC50 at 1.5 h [6]: > 1000 µM; CC50 at 1.5 h [7]: > 300 µM
CC1OC[C@@H](O)[C@H]([C@H](O)C(=O)CN[C@@H]2[C@H](O)[C@H](O[C@H]3/C=C/C=C/C=C/C=C/C=C/C=C/C=C/[C@H](C)[C@@H](O)[C@@H](C)[C@H](C)OC(=O)C[C@H](O)C[C@H](O)CC[C@@H](O)[C@H](O)C[C@H](O)C[C@]4(O)C[C@H](O)[C@@H](C(=O)O)[C@H](C3)O4)O[C@H](C)[C@H]2O)O1 (stereo partly drawn) [AmB 22 G, 1-deoxy-1-amino-4,6-O-ethylidene-D-fructosyl-AmB] | 0.12 | 9 × 10^-5 molarity | 1 × 10^-4 molarity | 10 | 400 | 30 | 50 | 700 | 0.09 | 1.2 | 5 | –
C[C@@H]1[C@H](O)[C@@H](C)/C=C/C=C/C=C/C=C/C=C/C=C/C=C/[C@H](O[C@@H]2O[C@H](C)[C@@H](O)[C@H](NCC3(O)O[C@H](C(=O)O)[C@@H](O)[C@@H]3O)[C@@H]2O)C[C@@H]2O[C@](O)(C[C@@H](O)C[C@@H](O)[C@H](O)CC[C@@H](O)C[C@@H](O)CC(=O)O[C@H]1C)C[C@H](O)[C@H]2C(=O)O (stereo partly drawn) [AmB 17 G, 1-amino-1-deoxy-D-arabinoglucuronyl-AmB] | 0.06 | 9 × 10^-5 molarity | 3.5 × 10^-5 molarity | 10 | 150 | 10 | 50 | 300 | – | 0.86 | 5 | –
C[C@@H]1[C@H](O)[C@@H](C)/C=C/C=C/C=C/C=C/C=C/C=C/C=C/[C@H](O[C@@H]2O[C@H](C)[C@@H](O)[C@H](NCC3(O)O[C@H](C(N)=O)[C@@H](O)[C@@H]3O)[C@@H]2O)C[C@@H]2O[C@](O)(C[C@@H](O)C[C@@H](O)[C@H](O)CC[C@@H](O)C[C@@H](O)CC(=O)O[C@H]1C)C[C@H](O)[C@H]2C(=O)O (stereo partly drawn) [AmB 12 G, 1-amino-1-deoxy-D-arabinoglucuronamidyl-AmB] | – | 9 × 10^-5 molarity | 1 × 10^-4 molarity | – | 500 | 46 | 30 | > 300 | 0.1 | 0.62 | 5 | HC50 (red corpuscles [1]): 20 µM
C[C@@H]1[C@H](O)[C@@H](C)/C=C/C=C/C=C/C=C/C=C/C=C/C=C/[C@H](O[C@@H]2O[C@H](C)[C@@H](O)[C@H](NCC(=O)[C@@H](O)[C@@H]3OC(c4ccccc4)OC[C@H]3O)[C@@H]2O)C[C@@H]2O[C@](O)(C[C@@H](O)C[C@@H](O)[C@H](O)CC[C@@H](O)C[C@@H](O)CC(=O)O[C@H]1C)C[C@H](O)[C@H]2C(=O)O (stereo partly drawn) [AmB 20 G, 1-deoxy-1-amino-4,6O-benzylidene-D-fructosyl-AmB] | 0.06 | 6 × 10^-4 molarity | 1.3 × 10^-4 molarity | 4 | 150 | 30 | 80 | 500 | 0.1 | 1 | 4 | –
C[C@@H]1[C@H](O)[C@@H](C)/C=C/C=C/C=C/C=C/C=C/C=C/C=C/[C@H](O[C@@H]2O[C@H](C)[C@@H](O)[C@H](NCC3(O)O[C@H](C(N)=O)[C@@H](O)[C@@H]3O)[C@@H]2O)C[C@@H]2O[C@](O)(C[C@@H](O)C[C@@H](O)[C@H](O)CC[C@@H](O)C[C@@H](O)CC(=O)O[C@H]1C)C[C@H](O)[C@H]2C(=O)O (stereo partly drawn) [Acetic acid NMG salt] | – | – | – | – | – | – | – | – | – | – | – | CC50 (PBL; human PBLs, AmB 12 derivative, comparison of different catalysts (Table 4), read-out: LD 50 (the source's name)): 200 µM
CC(=O)NC[C@H]1OC(O)(CN[C@@H]2[C@H](O)[C@H](O[C@H]3/C=C/C=C/C=C/C=C/C=C/C=C/C=C/[C@H](C)[C@@H](O)[C@@H](C)[C@H](C)OC(=O)C[C@H](O)C[C@H](O)CC[C@@H](O)[C@H](O)C[C@H](O)C[C@]4(O)C[C@H](O)[C@@H](C(=O)O)[C@H](C3)O4)O[C@H](C)[C@H]2O)[C@@H](O)[C@@H]1O (stereo partly drawn) [AmB 23 G, 6-deoxy-6-N-acetyl-1-deoxy-1-amino-fructosyl-AmB] | 0.17 | 5 × 10^-4 molarity | 9 × 10^-5 molarity | 4 | 500 | 8 | 1 | 300 | – | 1 | 2.5 | –
